According to patent US6984727B1, “Gene involved in brassinosteroid responses” (National Institute of Agrobiological Science, priority 2000, dated 2006):

System: second leaf of rice
Experiment: leaf blade bend response test (brassinosteroid response test)
Type: in vivo
Details: cut second leaf germinated in the dark, immersed in 1 ng/ml solution for 48 hours
Excerpt: The present gene was deduced to be a factor involved in the signal transduction system for plant hormones, taking note of the facts that the present gene was expressed in all plant bodies and that pleiotropic influences resulted from destroying this gene, as well as the possibility that the gene might be a factor involved in the signal transduction system. Presuming that the signal transduction system is that for brassinosteroid hormone in view of the resultant upright form, the inventors performed a leaf blade bend response test as a brassinosteroid response test, by using brassinolide, which is one kind of brassinosteroid hormone. The second leaf of rice which was allowed to germinate in the dark was cut off, and immersed in a 1 ng/ml of brassinosteroid solution for 48 hours.

CC(C)[C@H](C)[C@@H](O)[C@H](O)[C@@H](C)[C@H]1CC[C@H]2[C@@H]3COC(=O)[C@H]4C[C@H](O)[C@H](O)C[C@]4(C)[C@H]3CC[C@]12C [brassinolide]
bending of the leaf blades and leaf sheath junctions (Tos17-insertion mutant individuals (A0369, NC6148)): showed little bending thereof | bending of the leaf blades and leaf sheath junctions (wild type individuals (Akitakomachi, Nipponbare)): showed bending of the leaf blades and leaf sheath junctions
